These results are taken from US6521600B1, “Compound, WF002, production thereof and use thereof” (Fujisawa Pharmaceutical Co., Ltd., priority 1998, dated 2003).

Data set [1] relates to Aspergillus fumigatus FP1305. In words: Antimicrobial activity, serial broth dilution method (MEC). Type of data set: cell-based. The conditions noted are these: yeast nitrogen base dextrose medium, 37° C., 24 hours, microscopic observation. The method, then:
(§1) Test 1 (Antimicrobial Activity) Antimicrobial activity of WF002 was determined by a serial broth dilution method using 96-well microtiter plate in 100 μl of yeast nitrogen base dextrose medium. The inoculum was adjusted to 1×10^5 colony forming units/ml. Candida albicans and Aspergillus fumigatus were cultured at 37° C. for 24 hours and Cryptococcus neoformans was cultured at 37° C. for 48 hours in 5% CO2 incubator. After incubation, the growth inhibition of microorganism in each well was determined by microscopic observation. The results were shown as MEC (minimum effective concentration: μg/ml) value (Table 2).
(In general: In broth dilution the organism is exposed to a series of concentrations in liquid medium.)

In another data set the test system is Candida albicans FP633. The description is as above. The format is cell-based. The following applies: yeast nitrogen base dextrose medium, 37° C., 24 hours, microscopic observation. How it is done: as §1
For data set [2], the system named is Cryptococcus neoformans YC203. Described as above. The format is cell-based. The following applies: yeast nitrogen base dextrose medium, 37° C., 48 hours, 5% CO2, microscopic observation. The method, then: as §1
Another data set can be described thus: Solubility in solvents. Type of data set: physicochemical.

In the case of `CC(=O)OC1CC2(C)C(CCC3(C)C2CCC2=C4C(=O)CC5C(C)COC(O)C45CCC23C)C(C)(C)C1OC1OC(CO)C(O)C(O)C1O` (centres unmarked) [WF002], the “MEC (minimum effective concentration)” value turned out to be 0.04 µg/mL in data set [1], 6.25 µg/mL in the data set on Candida albicans FP633 and 50 µg/mL in data set [2]. Further, the Solubility result is “Soluble” in the data set “Solubility in solvents” (methanol, ethyl acetate, dimethylsulfoxide) and “Insoluble” in the data set “Solubility in solvents” (water, n-hexane).
